Data taken from US20210369720A1, “SYNERGISTIC COMPOSITION HAVING NEUROPROTECTIVE PROPERTIES AND METHODS OF USE THEREOF” (Rutgers, The State University of New Jersey, priority 2018, published 2021).

Tests used:
MAP2 = assay: Immunofluorescence staining of MAP2 in the cortex, Syn^Tg mice; assay type: in vivo; conditions: EHT 12 mg/kg/day and/or caffeine 50 mg/kg/day until six months of age
Description: (§1) Thy1-α-synuclein transgenic mice (Syn^Tg) on BDF1 background overexpressing human wild-type α-synuclein under the control of the Thy1 promoter were maintained by mating heterozygous transgenic females with WT BDF1 males (Rockenstein E, et al. (2002) Differential neuropathological alterations in transgenic mice expressing alpha-synuclein from the platelet-derived growth factor and Thy-1 promoters. J Neurosci Res 68(5):568-578). BDF1 mice (mixed C57BL/6-DBA/2) were generated every three months by mating female C57BL/6 (The Jackson Laboratory) and male DBA/2 mice (Charles River). Experiments were performed with male transgenic mice and their WT littermates. […] Wild-type littermates received regular water and control chow. […] At two months of age, mice were inoculated with α-Syn PFF unilaterally in the striatum. These treatments continued throughout the experiment until animals were sacrificed. Mice were weighed and their food and water intake was quantified weekly. Animals were housed 2-5/cage in an AAALAC approved facility in a temperature- and humidity-controlled environment under a 12-hour light/dark cycle and were maintained on a diet of lab chow and water ad libitum. […]

[1] = tested on: α-Syn PFF inoculated WT mice; assay: Morris Water Maze, α-Syn PFF inoculated WT mice; assay type: in vivo; conditions: EHT 12 mg/kg/day and/or caffeine 50 mg/kg/day, 6 months post-inoculation, test also not affected by PFF inoculation
Description: as §1

PP2A = assay: Western blot of PP2A methylation in SH-SY5Y cells challenged with α-Syn PFF; assay type: cell-based, Human; conditions: SH-SY5Y cells challenged with mouse α-Syn PFF for 7 days; caffeine and/or EHT added to the medium
Protocol: Human neuroblastoma SH-SY5Y cells were cultured in DMEM-F12 with 10% FBS. At 50% confluency, cells were treated with 1 gg/ml mouse α-Syn PFF in DMEM-F12 with 1% FBS for 7 days. Medium was refreshed every 3 days. Cell harvesting was done with 2% SDS in PBS supplemented with protease inhibitor (Millipore) and phosphatase inhibitor (Sigma-Aldrich). Lysates were sonicated and boiled at 95° C. for 5 minutes. Protein concentration was determined by bicinchonic acid (BCA) method (Pierce), equal amount of protein was separated on 5-20% SDS-PAGE gel (Genescript) and transferred to nitrocellulose or PVDF membrane (Biorad). Following transfer, membranes were blocked for 1 hour at room temperature in blocking buffer (Li-Cor) or 5% (w/v) BSA/TBS-Tween 0.1% (v/v). Primary antibodies were diluted in blocking buffer or 5% (w/v) BSA/TBS-Tween 0.1% (v/v) and incubated with the membranes at 4° C. overnight. Membranes were washed three times in TBS-Tween and incubated in diluted IRDye 800CW or HRP conjugated secondary antibody for 1 hour at room temperature. Following washing, membranes were scanned by Li-Cor Odyssey CLx infrared imaging system or treated with the Western Lightning ECL-plus reagents (PerkinElmer) and exposed to autoradiography films (LabScientific).

[2] = tested on: phosphorylated α-synuclein (p-α-Syn); assay: Immunohistochemical staining of p-α-Syn, Syn^Tg mice; assay type: in vivo; conditions: EHT 12 mg/kg/day and/or caffeine 50 mg/kg/day until six months of age, vs untreated Syn^Tg mice
Description: as §1, with “weekly.” for “weekly. Animals were housed 2-5/cage in an AAALAC approved facility in a temperature- and humidity-controlled environment under a 12-hour light/dark cycle and were maintained on a diet of lab chow and water ad libitum.”
Vectastain elite ABC kit (Vector Laboratories, Burlingame, Calif.) and 3,3′-diaminobenzidine (Sigma-Aldrich) were used for amplifying and color development. […] For other stains, the whole microscopic field was analyzed. For p-α-Syn stains in the cortex, four matching regions in each of two sections per animal were counted.

[3] = tested on: Tyrosine hydroxylase (TH); assay: Striatal TH staining, α-Syn PFF inoculated WT mice; assay type: in vivo; conditions: EHT 12 mg/kg/day and/or caffeine 50 mg/kg/day, vs untreated α-Syn PFF inoculated mice
Description: as §1

Q: For `CCCCCCCCCCCCCCCCCCCC(=O)NCCc1c[nH]c2ccc(O)cc12` [EHT, eicosanoyl-5-hydroxytryptamide], which “MAP2 in the cortex (neuritic integrity)” value (MAP2) is on record?
A: Its value is “did not improve this profile”.

Q: And the “Learning and memory task on the Morris Water Maze” value [1]?
A: Its value is “not affected”.

Q: And the “demethylated PP2A levels” value (PP2A)?
A: Its value is “partially reversed this trend”.

Q: What about the “methyl- to demethyl-PP2A ratio” value (PP2A) of the same compound?
A: The value was “not individually”.

Q: What about the “methylated PP2A levels” value (PP2A) of the same compound?
A: The value was “partially reversed this trend”.

Q: What about the “number of p-α-Syn immunoreactive cells, hippocampus (FIG. 2B)” value [2] of the same compound?
A: Its value is “reduced p-α-Syn positive cells”.

Q: What about the “TH staining of dopaminergic terminals in the striatum (ipsilateral and contralateral)” value [3] of the same compound?
A: Its value is “non-significant increase”.
